Test results taken from PubChem BioAssay AID330 (DTP/NCI, 2004).
Several values for one entry are separate records, joined by “and”; a condition that tells them apart may be missing. Equal entries are not always repeated. Inconclusive results and toxic doses are left out.

Tested on: P388 leukemia ip, CD2F1 mice, survival T/C
Assay: NCI In Vivo Anticancer Drug Screen. Data for tumor model P388 Leukemia (intraperitoneal) in CD2F1 (CDF1) mice
Conditions: endpoint: median survival time, higher = longer survival
Outline: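 Mice carrying the transplanted tumor received test compound or vehicle. Survival was recorded in each group, and the value is the treated-group measurement divided by that of the vehicle-treated control group.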

[1] = dose: 50.0 mg/kg/injection, schedule: Q01DX009 (ip), vehicle: saline with Tween-80
[2] = dose: 50.0 mg/kg/injection, schedule: Q04DX003 (ip), vehicle: saline
[3] = dose: 25.0 mg/kg/injection, schedule: Q01DX005 (ip), vehicle: saline with Tween-80
[4] = dose: 100.0 mg/kg/injection, schedule: Q01DX009 (ip), vehicle: saline with Tween-80
[5] = dose: 60.0 mg/kg/injection, schedule: Q01DX005 (ip), vehicle: saline with Tween-80
[6] = dose: 120.0 mg/kg/injection, schedule: Q01DX005 (ip), vehicle: saline with Tween-80
[7] = dose: 100.0 mg/kg/injection, schedule: Q04DX003 (ip), vehicle: saline
[8] = dose: 200.0 mg/kg/injection, schedule: Q04DX003 (ip), vehicle: saline
[9] = dose: 400.0 mg/kg/injection, schedule: Q04DX003 (ip), vehicle: saline

With [Ag].[Ag].[NH-]S(=O)(=O)c1ccc(N=Nc2cc(N=Nc3ccc(S([NH-])(=O)=O)cc3)c3c(NC(=O)C(Cl)Cl)cccc3c2OC(=O)C(Cl)Cl)cc1.[c-]1nccs1.[c-]1nccs1 the T/C (dose: 12.5 mg/kg/injection, schedule: Q01DX009 (ip), vehicle: saline with Tween-80) was 91 % of control, the T/C (dose: 25.0 mg/kg/injection, schedule: Q01DX009 (ip), vehicle: saline with Tween-80) was 100 % of control and the T/C [1] was 88 % of control and 93 % of control.

Cn1cnc([N+](=O)[O-])c1[Se]c1ncnc2c1c(C#N)cn2C1OC(CO)C(O)C1O (centres undefined) was tested, and the T/C (dose: 12.5 mg/kg/injection, schedule: Q04DX003 (ip), vehicle: saline) was 103 % of control, the T/C (dose: 25.0 mg/kg/injection, schedule: Q04DX003 (ip), vehicle: saline) was 116 % of control and the T/C [2] was 116 % of control.

For COc1nc(NC2OCC(O)C(O)C2O)c(C=O)c(=O)n1C (centres undefined), the T/C (dose: 60.0 mg/kg/injection, schedule: Q01DX005 (ip), vehicle: saline) was 100 % of control, the T/C (dose: 120.0 mg/kg/injection, schedule: Q01DX005 (ip), vehicle: saline) was 90 % of control and the T/C (dose: 240.0 mg/kg/injection, schedule: Q01DX005 (ip), vehicle: saline) was 90 % of control.

With O=C1OCCOCCOCCOCCOCCOCCOC(=O)c2cccc1n2 the T/C (dose: 100.0 mg/kg/injection, schedule: Q04DX003 (ip), vehicle: Klucel (hydroxypropylcellulose) (HPC)) was 100 % of control, the T/C (dose: 200.0 mg/kg/injection, schedule: Q04DX003 (ip), vehicle: Klucel (hydroxypropylcellulose) (HPC)) was 100 % of control and the T/C (dose: 400.0 mg/kg/injection, schedule: Q04DX003 (ip), vehicle: Klucel (hydroxypropylcellulose) (HPC)) was 100 % of control.

CCCCN1C(=O)[C@@H]2[C@H](c3ccccc3O)C(c3ccccc3O)[C@@H]2C1=O (some centres undefined) was tested, and the T/C (dose: 60.0 mg/kg/injection, schedule: Q01DX005 (ip), vehicle: Klucel (hydroxypropylcellulose) (HPC)) was 100 % of control, the T/C (dose: 120.0 mg/kg/injection, schedule: Q01DX005 (ip), vehicle: Klucel (hydroxypropylcellulose) (HPC)) was 92 % of control and the T/C (dose: 240.0 mg/kg/injection, schedule: Q01DX005 (ip), vehicle: Klucel (hydroxypropylcellulose) (HPC)) was 100 % of control.

With COc1cc(-c2ccc(N=Nc3c(O)c(C(=O)Nc4ccccc4OC)cc4ccccc34)c(OC)c2)ccc1N=Nc1c(O)c(C(=O)Nc2ccccc2OC)cc2ccccc12 the T/C (dose: 6.25 mg/kg/injection, schedule: Q01DX005 (ip), vehicle: saline with Tween-80) was 90 % of control, the T/C (dose: 12.5 mg/kg/injection, schedule: Q01DX005 (ip), vehicle: saline with Tween-80) was 96 % of control and the T/C [3] was 89 % of control.

For CC(C)SC(=S)Nc1cc(Cl)c(Cl)cc1Cl, the T/C [1] was 98 % of control and the T/C [4] was 102 % of control.

In the case of N#Cc1cn(C2OC(CO)C(O)C2O)c2ncnc(Cl)c12 (centres undefined), the T/C [5] is reported as 151 % of control and 174 % of control and the T/C [6] is reported as 111 % of control.

In the case of CC1(C)N=C(N)N=C(N)N1c1ccc(OCc2ccc(C(=O)Nc3cccc(S(=O)(=O)F)c3)cc2)c(Cl)c1, the T/C [2] is reported as 181 % of control and the T/C [7] is reported as 86 % of control.

In the case of COC(=O)c1nc(=S)[nH]c(C(=O)OC)c1C(=O)c1ccc(N2CCN(c3ccc(C(=O)c4c(C(=O)OC)nc(=S)[nH]c4C(=O)OC)cc3)CC2)cc1, the T/C (dose: 60.0 mg/kg/injection, schedule: Q01DX005 (ip), vehicle: suspension in saline) is reported as 99 % of control, the T/C (dose: 120.0 mg/kg/injection, schedule: Q01DX005 (ip), vehicle: suspension in saline) is reported as 97 % of control and the T/C (dose: 240.0 mg/kg/injection, schedule: Q01DX005 (ip), vehicle: suspension in saline) is reported as 100 % of control.

CNC(=S)NNc1nnc(NNC(=S)NC)c2ccccc12 was tested, and the T/C (dose: 50.0 mg/kg/injection, schedule: Q01DX009 (ip), vehicle: saline) was 94 % of control, the T/C (dose: 100.0 mg/kg/injection, schedule: Q01DX009 (ip), vehicle: saline) was 97 % of control and the T/C (dose: 200.0 mg/kg/injection, schedule: Q01DX009 (ip), vehicle: saline) was 102 % of control.

In the case of CC(O)CC1(c2ccccc2)C(=O)NC(=O)NC1=O (centres undefined), the T/C [1] is reported as 98 % of control, the T/C [4] is reported as 98 % of control and the T/C (dose: 200.0 mg/kg/injection, schedule: Q01DX009 (ip), vehicle: saline with Tween-80) is reported as 95 % of control.

For Cc1nc(Nc2ccccc2)c2c(-c3ccccc3)c[nH]c2n1, the T/C (dose: 50.0 mg/kg/injection, schedule: Q01DX005 (ip), vehicle: Klucel (hydroxypropylcellulose) (HPC)) was 89 % of control, the T/C (dose: 100.0 mg/kg/injection, schedule: Q01DX005 (ip), vehicle: Klucel (hydroxypropylcellulose) (HPC)) was 90 % of control and the T/C (dose: 200.0 mg/kg/injection, schedule: Q01DX005 (ip), vehicle: Klucel (hydroxypropylcellulose) (HPC)) was 100 % of control.

With Nc1c[n+]([O-])ccn1 the T/C [7] was 101 % of control, the T/C [8] was 98 % of control and the T/C [9] was 93 % of control.

Cc1ccc(N2C(=O)CC3(CCCC3)C2=O)cc1[N+](=O)[O-] was tested, and the T/C (dose: 100.0 mg/kg/injection, schedule: Q04DX002 (ip), vehicle: Klucel (hydroxypropylcellulose) (HPC)) was 106 % of control, the T/C (dose: 200.0 mg/kg/injection, schedule: Q04DX002 (ip), vehicle: Klucel (hydroxypropylcellulose) (HPC)) was 105 % of control and the T/C (dose: 400.0 mg/kg/injection, schedule: Q04DX002 (ip), vehicle: Klucel (hydroxypropylcellulose) (HPC)) was 97 % of control.

For CN(Cc1cnc2nc(N)nc(N)c2n1)c1ccc(C(=O)NC(CCC(=O)O)C(=O)O)cc1Br (centres undefined), the T/C (dose: 0.62 mg/kg/injection, schedule: Q01DX009 (ip), vehicle: saline sonified) was 209 % of control, the T/C (dose: 1.25 mg/kg/injection, schedule: Q01DX009 (ip), vehicle: saline sonified) was 236 % of control and the T/C (dose: 2.5 mg/kg/injection, schedule: Q01DX009 (ip), vehicle: saline sonified) was 245 % of control. The T/C (dose: 5.0 mg/kg/injection, schedule: Q04DX003 (ip), vehicle: saline with Tween-80) was 200 % of control, the T/C (dose: 6.6 mg/kg/injection, schedule: Q04DX003 (ip), vehicle: saline with Tween-80) was 166 % of control and the T/C (dose: 10.0 mg/kg/injection, schedule: Q04DX003 (ip), vehicle: saline with Tween-80) was 166 % of control and 200 % of control.

With Cn1cnnc1[N+](=O)[O-] the T/C (dose: 25.0 mg/kg/injection, schedule: Q04DX003 (ip), vehicle: saline sonified) was 100 % of control, the T/C (dose: 50.0 mg/kg/injection, schedule: Q04DX003 (ip), vehicle: saline sonified) was 95 % of control and the T/C (dose: 100.0 mg/kg/injection, schedule: Q04DX003 (ip), vehicle: saline sonified) was 90 % of control.

For CC1(C)OC1(C(=O)C=[N+]=[N-])c1ccccc1 (centres undefined), the T/C [3] was 96 % of control, the T/C (dose: 50.0 mg/kg/injection, schedule: Q01DX005 (ip), vehicle: saline with Tween-80) was 99 % of control and the T/C (dose: 100.0 mg/kg/injection, schedule: Q01DX005 (ip), vehicle: saline with Tween-80) was 96 % of control. For the same molecule, the T/C (dose: 200.0 mg/kg/injection, schedule: Q01DX005 (ip), vehicle: saline with Tween-80) was 103 % of control.

For O=C1N=C2OC3(CCCCC3)OC(=O)N2C2(CCCCC2)O1, the T/C (dose: 12.5 mg/kg/injection, schedule: Q01DX009 (ip), vehicle: distilled water + Tween-80) was 107 % of control, the T/C (dose: 25.0 mg/kg/injection, schedule: Q01DX009 (ip), vehicle: distilled water + Tween-80) was 93 % of control and the T/C (dose: 50.0 mg/kg/injection, schedule: Q01DX009 (ip), vehicle: distilled water + Tween-80) was 97 % of control. The T/C (dose: 100.0 mg/kg/injection, schedule: Q01DX009 (ip), vehicle: distilled water + Tween-80) was 100 % of control and 96 % of control and the T/C (dose: 200.0 mg/kg/injection, schedule: Q01DX009 (ip), vehicle: distilled water + Tween-80) was 109 % of control and 114 % of control.

With COC(=O)c1ccc(/C=C(\c2ccc([N+](=O)[O-])o2)S(=O)(=O)c2ccc(NC(C)=O)cc2)o1 the T/C (dose: 50.0 mg/kg/injection, schedule: Q01DX009 (ip), vehicle: suspension in saline) was 95 % of control and the T/C (dose: 100.0 mg/kg/injection, schedule: Q01DX009 (ip), vehicle: suspension in saline) was 88 % of control.

In the case of O=c1[nH]c(C(Br)(Br)Br)nc2ccccc12, the T/C (dose: 12.5 mg/kg/injection, schedule: Q01DX009 (ip), vehicle: Klucel (hydroxypropylcellulose) (HPC)) is reported as 99 % of control, the T/C (dose: 25.0 mg/kg/injection, schedule: Q01DX009 (ip), vehicle: Klucel (hydroxypropylcellulose) (HPC)) is reported as 112 % of control and the T/C (dose: 50.0 mg/kg/injection, schedule: Q01DX009 (ip), vehicle: Klucel (hydroxypropylcellulose) (HPC)) is reported as 113 % of control. For the same molecule, the T/C (dose: 100.0 mg/kg/injection, schedule: Q01DX009 (ip), vehicle: Klucel (hydroxypropylcellulose) (HPC)) was 117 % of control.

Cc1ccc(S(=O)(=O)/C=C/C(=O)c2ccc3ccccc3c2)cc1 was tested, and the T/C [7] was 103 % of control, the T/C [8] was 103 % of control and the T/C [9] was 100 % of control.

With COC(=O)c1cn[nH]c1CC#N the T/C (dose: 100.0 mg/kg/injection, schedule: Q04DX002 (ip), vehicle: saline with Tween-80) was 92 % of control and the T/C (dose: 200.0 mg/kg/injection, schedule: Q04DX002 (ip), vehicle: saline with Tween-80) was 100 % of control.

In the case of COc1ccc2nc(Cl)c(Br)c(C)c2c1, the T/C [5] is reported as 95 % of control, the T/C [6] is reported as 92 % of control and the T/C (dose: 240.0 mg/kg/injection, schedule: Q01DX005 (ip), vehicle: saline with Tween-80) is reported as 90 % of control.
